Structures are written as SMILES.

Assay [1] deals with T1, human OX2R (Homo sapiens, UniProt O43614).
T1 construct: expressed in transfected cells; host or cells: CHO (Chinese hamster ovary) cells, line CHOOX2R, co-expressing NFAT-luciferase
T1 sequence (O43614 1-444): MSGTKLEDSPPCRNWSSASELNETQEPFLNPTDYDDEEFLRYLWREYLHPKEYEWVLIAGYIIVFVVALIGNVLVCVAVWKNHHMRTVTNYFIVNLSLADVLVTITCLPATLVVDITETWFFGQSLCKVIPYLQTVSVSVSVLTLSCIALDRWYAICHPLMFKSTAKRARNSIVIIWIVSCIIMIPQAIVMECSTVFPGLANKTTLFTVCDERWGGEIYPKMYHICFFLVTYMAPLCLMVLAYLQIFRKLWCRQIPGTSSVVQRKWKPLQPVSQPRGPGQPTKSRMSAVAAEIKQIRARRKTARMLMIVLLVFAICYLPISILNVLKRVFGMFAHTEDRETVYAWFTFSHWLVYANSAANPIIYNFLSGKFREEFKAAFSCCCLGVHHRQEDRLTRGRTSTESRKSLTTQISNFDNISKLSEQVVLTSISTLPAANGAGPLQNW
Description: Agonist activity against OX2R: intracellular calcium (Fura-2AM, FDSS7000) in CHOOX2R cells. The class given is cell-based. Conditions: relative to orexin-A as full agonist (100%). The essentials:
(§1)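 Response is agonist activity at 0.1, 1.0 or 10 μM compound as a percentage of the orexin-A full-agonist maximum, taken from 340/380 nm Fura-2 ratio changes. Each cell line is CHO constitutively expressing human OX1R or OX2R with NFAT-luciferase, dye-loaded 60 min with 5 μM Fura-2AM; compound range 10^−7–10^−5 M, 1% DMSO.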
For orientation: Calcium flux is commonly read through the fluorescence of an indicator in the cells.

Assay [2] deals with T2, human OX1R (Homo sapiens, UniProt O43613).
T2 construct: expressed in transfected cells; host or cells: CHO (Chinese hamster ovary) cells, line CHOOX1R, co-expressing NFAT-luciferase
T2 sequence (O43613 1-425): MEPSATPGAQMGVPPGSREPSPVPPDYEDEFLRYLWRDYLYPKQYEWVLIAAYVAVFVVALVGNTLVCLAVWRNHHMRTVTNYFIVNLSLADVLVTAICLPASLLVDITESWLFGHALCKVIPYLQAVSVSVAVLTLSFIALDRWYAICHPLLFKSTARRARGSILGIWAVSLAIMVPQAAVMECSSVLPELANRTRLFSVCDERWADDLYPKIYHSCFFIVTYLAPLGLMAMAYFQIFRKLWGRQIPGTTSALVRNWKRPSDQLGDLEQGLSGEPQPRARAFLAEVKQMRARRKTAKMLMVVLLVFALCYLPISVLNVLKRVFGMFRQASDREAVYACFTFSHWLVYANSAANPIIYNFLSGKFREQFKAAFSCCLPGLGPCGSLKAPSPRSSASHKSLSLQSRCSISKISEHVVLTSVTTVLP
Description: Agonist activity against OX1R: intracellular calcium (Fura-2AM, FDSS7000) in CHOOX1R cells. Type of assay: cell-based. Conditions: relative to orexin-A as full agonist (100%); for Emax at 0.1 µM / Emax at 1 µM / Emax at 10 µM: read-out: Response (%) OX1R. The method, boiled down:
as §1

For `COc1ccc(-c2cccc(C(=O)N(C)C)c2)cc1S(=O)(=O)Nc1cccc(NC(=O)/C=C/c2ccoc2)c1` [Example 14], the “Response (%) OX2R” value was under 5% in assay [1] (0.1 μM test compound), 18% in assay [1] (1.0 μM test compound) and 74% in assay [1] (10 μM test compound). In addition, the “Response (%) OX1R” value in assay [2] (0.1 μM test compound), in assay [2] (1.0 μM test compound) and in assay [2] (10 μM test compound) was under 5% throughout.
For `COc1ccc(-c2cccc(C(=O)N(C)C)c2)cc1S(=O)(=O)Nc1cccc(N2CCCN(c3ccccc3)C2=O)c1` [Example 132], the figures for the “Response (%) OX2R” value in assay [1] (test compound 0.1 μM), in assay [1] (test compound 1.0 μM) and in assay [1] (test compound 10 μM) were 42%, 100% and 101%, respectively. For the same compound, the “Response (%) OX1R” value is under 5% in assay [2] (test compound 0.1 μM), under 5% in assay [2] (test compound 1.0 μM) and 46% in assay [2] (test compound 10 μM).
With `COc1ccc(-c2cccc(C(=O)N(C)C)c2)cc1S(=O)(=O)Nc1cccc(NC(=O)Nc2ccncc2)c1` [Example 70], the “Response (%) OX2R” value in assay [1] (0.1 μM test compound) is on record as 9%; in assay [1] (1.0 μM test compound) it was 9%; in assay [1] (10 μM test compound), 46%. The “Response (%) OX1R” value in assay [2] (0.1 μM test compound), in assay [2] (1.0 μM test compound) and in assay [2] (10 μM test compound) was 6% in each case.
With `COc1ccccc1NC(=O)Nc1cccc(NS(=O)(=O)c2cc(-c3cccc(C(=O)N(C)C)c3)ccc2OC)c1` [Example 52], the “Response (%) OX2R” value came to 43% in assay [1] (0.1 μM test compound), 81% in assay [1] (1.0 μM test compound) and 78% in assay [1] (10 μM test compound). The entries for the “Response (%) OX1R” value in assay [2] (0.1 μM test compound), in assay [2] (1.0 μM test compound) and in assay [2] (10 μM test compound) were under 5%, under 6% and under 7%, respectively.
As to `COc1ccc(-c2cccc(C(=O)N(C)C)c2)cc1S(=O)(=O)Nc1cccc(Nc2cccc(C(F)(F)F)c2)c1` [Example 35], the “Response (%) OX2R” value is under 5% in assay [1] (0.1 μM test compound), 35% in assay [1] (1.0 μM test compound) and 63% in assay [1] (10 μM test compound). Besides, the “Response (%) OX1R” value in assay [2] (0.1 μM test compound), in assay [2] (1.0 μM test compound) and in assay [2] (10 μM test compound) was under 5% each time.
Consider `COc1ccc(-c2cccc(C(=O)N(C)C)c2)cc1S(=O)(=O)Nc1cccc(NC(=O)c2ccccc2)c1` [Example 1, 3′-(N-(3-benzamidophenyl)sulfamoyl)-4′-methoxy-N,N-dimethyl-[1,1′-biphenyl]-3-carboxamide], for which the “Response (%) OX2R” value in assay [1] (0.1 μM test compound) is on record as under 5%; in assay [1] (1.0 μM test compound) it was 6%; in assay [1] (10 μM test compound) it was 67%. The Emax at 0.1 µM in assay [2] (0.1 μM test compound) was under 5%. For the same compound, in assay [2] (1.0 μM test compound), the Emax at 1 µM was under 5%. Moreover, in assay [2] (10 μM test compound), the Emax at 10 µM is under 5%.
In the case of `COc1ccc(-c2cccc(C(=O)N(C)C)c2)cc1S(=O)(=O)Nc1cccc(NC(=O)OC(C)(C)C)c1` [Example 74], the “Response (%) OX2R” value is 15% in assay [1] (0.1 μM test compound), 13% in assay [1] (1.0 μM test compound) and 64% in assay [1] (10 μM test compound). Moreover, the entries for the “Response (%) OX1R” value in assay [2] (0.1 μM test compound), in assay [2] (1.0 μM test compound) and in assay [2] (10 μM test compound) were 6%, 7% and 7%, respectively.
Regarding `COc1ccc(-c2cccc(C(=O)N(C)C)c2)cc1S(=O)(=O)Nc1cccc(NC(=O)c2cccc(N(C)C)c2)c1` [Example 7], the “Response (%) OX2R” value is 8% in assay [1] (0.1 μM test compound), 10% in assay [1] (1.0 μM test compound) and 24% in assay [1] (10 μM test compound). Also, the entries for the “Response (%) OX1R” value in assay [2] (0.1 μM test compound), in assay [2] (1.0 μM test compound) and in assay [2] (10 μM test compound) were 6%, 8% and 27%, respectively.
As for `COc1ccc(-c2cccc(C(=O)N(C)C)c2)cc1S(=O)(=O)Nc1cccc(NC(=S)Nc2ccccc2)c1` [Example 75, 4′-methoxy-N,N-dimethyl-3′-(N-(3-(3-phenylthioureido)phenyl)sulfamoyl)-[1,1′-biphenyl]-3-carboxamide], the figures for the “Response (%) OX2R” value in assay [1] (0.1 μM test compound), in assay [1] (1.0 μM test compound) and in assay [1] (10 μM test compound) were 61%, 94% and 95%, respectively. Also, the Emax at 0.1 µM in assay [2] (0.1 μM test compound) is under 5%. Besides, the Emax at 1 µM in assay [2] (1.0 μM test compound) is under 5%. The Emax at 10 µM in assay [2] (10 μM test compound) is 30%.

These data come from patent US10351522B2, “Sulfonamide derivative and pharmaceutically acceptable acid addition salt thereof” (UNIVERSITY OF TSUKUBA, priority 2015, dated 2019).
